A word on the IC50: it is the concentration that gives 50% inhibition.

Molecules are shown by their SMILES. Active and inactive are the calls of the source. The rule behind the calls is not given here.

Three molecules from ChEMBL document CHEMBL5252616, “Design, synthesis and biological evaluation of the tumor hypoxia-activated PROTACs bearing caged CRBN E3 ligase ligands” (Bioorg Med Chem, 2023) can be followed below.

For data set [1], the system named is PC-9. Description: Induction of apoptosis in human PC-9 cells assessed as late apoptotic cells at 0.1 uM incubated for 72 hrs under normoxia condition by Annexin V-FITC/ PI staining based flow cytometry (Rvb= 3.72%). The format is functional. In general terms: Flow cytometry measures light scatter and fluorescence of single cells or particles in a stream.
For data set [2], the system named is PC-9. Description: Antitumor activity against human PC-9 cells assessed as inhibition of cell viability incubated for 72 hrs under hypoxia condition by CCK8 assay. The format is functional, cell-based. To be noted: PC-9, 72 h.
The nature of data set [3]: Prodrug conversion in hypoxia condition assessed as nitroreductase mediated drug degradation by measuring parent compound remaining in presence of NADPH as cofactor at 1 uM and measured after 60 mins by UPLC-MS/MS analysis. The format is ADME. To be noted: isolated protein, 1 h.
Data set [4] deals with Protein cereblon/Epidermal growth factor receptor (Homo sapiens), P00533+Q96SW2 [UNDEFINED MUTATION]. Description: Protac activity at CRBN/EGFR deletion19 mutant in human PC-9 cells assessed as induction of EGFR degradation at 0.001 to 1 uM and measured after 24 hrs under normoxia condition by Western blot analysis. The format is cell-based. As to conditions: dose 0.001-1 µM.

The subject of data set [5] is PC-9. Description: Induction of apoptosis in human PC-9 cells assessed as early apoptotic cells at 0.1 uM incubated for 72 hrs under normoxia condition by Annexin V-FITC/ PI staining based flow cytometry (Rvb= 0.82%). The format is functional.
Data set [6] relates to PC-9. Description: Inhibition of cell migration in human PC-9 cells at 100 nM incubated for 24 hrs under hypoxia condition by imaging analysis. The format is functional, cell-based.
Data set [7] relates to PC-9. Description: Induction of apoptosis in human PC-9 cells assessed as early apoptotic cells at 0.1 uM incubated for 72 hrs under hypoxia condition by Annexin V-FITC/ PI staining based flow cytometry (Rvb= 4.27%). The format is functional.
For data set [8], the system named is PC-9. Description: Antitumor activity against human PC-9 cells assessed as inhibition of cell viability incubated for 72 hrs under normoxia condition by CCK8 assay. The format is functional, cell-based. To be noted: PC-9, 72 h. Background: Tetrazolium assays rely on reduction of a dye to a coloured formazan, in cell work by metabolically active cells.
The subject of data set [9] is PC-9. Description: Induction of apoptosis in human PC-9 cells assessed as apoptotic cells at 0.1 uM incubated for 72 hrs under normoxia condition by Annexin V-FITC/ PI staining based flow cytometry (Rvb= 4.54%). The format is functional.
The subject of data set [10] is PC-9. Description: Induction of apoptosis in human PC-9 cells assessed as necrotic cells at 0.1 uM incubated for 72 hrs under normoxia condition by Annexin V-FITC/ PI staining based flow cytometry (Rvb= 0.93%). The format is functional.
Data set [11] is described as follows: Prodrug conversion in hypoxia condition assessed as nitroreductase mediated active drug N-(4-((3-chloro-4-fluorophenyl)amino)-7-(((S)-tetrahydrofuran-3-yl)oxy)quinazolin-6-yl)-3-(2-(2-(2-((2-(2,6-dioxopiperidin-3-yl)-1,3-dioxoisoindolin-4-yl)oxy)ethoxy)ethoxy)ethoxy)propanamide formation in presence of NADPH as cofactor at 1 uM and measured after 60 mins by UPLC-MS/MS analysis. The format is ADME. As to conditions: isolated protein, 1 h.

For data set [12], the system named is Protein cereblon/Epidermal growth factor receptor (Homo sapiens), P00533+Q96SW2 [UNDEFINED MUTATION]. Description: Protac activity at CRBN/EGFR deletion19 mutant in human PC-9 cells assessed as induction of EGFR degradation at 0.001 to 1 uM and measured after 24 hrs under hypoxia condition by Western blot analysis. The format is cell-based. As to conditions: dose 0.001-1 µM. On the technique in general: In western blotting, separated proteins are transferred to a membrane and probed.

For data set [13], the system named is PC-9. Description: Induction of apoptosis in human PC-9 cells assessed as live cells at 0.1 uM incubated for 72 hrs under hypoxia condition by Annexin V-FITC/ PI staining based flow cytometry (Rvb= 88.19%). The format is functional.
The test system of data set [14] is PC-9. Description: Induction of apoptosis in human PC-9 cells assessed as necrotic cells at 0.1 uM incubated for 72 hrs under hypoxia condition by Annexin V-FITC/ PI staining based flow cytometry (Rvb= 2.81%). The format is functional.
The test system of data set [15] is PC-9. Description: Induction of apoptosis in human PC-9 cells assessed as late apoptotic cells at 0.1 uM incubated for 72 hrs under hypoxia condition by Annexin V-FITC/ PI staining based flow cytometry (Rvb= 4.73%). The format is functional.
For data set [16], the system named is PC-9. Description: Induction of apoptosis in human PC-9 cells assessed as live cells at 0.1 uM incubated for 72 hrs under normoxia condition by Annexin V-FITC/ PI staining based flow cytometry (Rvb= 94.53%). The format is functional.
In data set [17] the test system is PC-9. Description: Induction of apoptosis in human PC-9 cells assessed as apoptotic cells at 0.1 uM incubated for 72 hrs under hypoxia condition by Annexin V-FITC/ PI staining based flow cytometry (Rvb= 9%). The format is functional.
Data set [18] deals with PC-9. Description: Inhibition of cell migration in human PC-9 cells at 100 nM incubated for 24 hrs under normoxia condition by imaging analysis. The format is functional, cell-based.
Data set [19] deals with Protein cereblon/Epidermal growth factor receptor (Homo sapiens), P00533+Q96SW2 [UNDEFINED MUTATION]. Description: Protac activity at CRBN/EGFR deletion19 mutant in human PC-9 cells assessed as induction of EGFR degradation at 0.001 to 0.1 uM and measured after 24 hrs under hypoxia condition by Western blot analysis. The format is cell-based. To be noted: dose 0.001-0.1 µM.

Data set [20] has the same test system. Description: Protac activity at CRBN/EGFR deletion19 mutant in human PC-9 cells assessed as induction of EGFR degradation at 0.5 to 1 uM and measured after 24 hrs under normoxia condition by Western blot analysis. The format is cell-based. As to conditions: dose 0.5-1 µM.
Data set [21] shares this test system. Description: Protac activity at CRBN/EGFR deletion19 mutant in human PC-9 cells assessed as induction of EGFR degradation at 0.5 to 1 uM and measured after 24 hrs under hypoxia condition by Western blot analysis. The format is cell-based. To be noted: dose 0.5-1 µM.
The test system is the same in data set [22]. Description: Protac activity at CRBN/EGFR deletion19 mutant in human PC-9 cells assessed as induction of EGFR degradation at 0.001 to 0.1 uM and measured after 24 hrs under normoxia condition by Western blot analysis. As to conditions: dose 0.001-0.1 µM. The format is cell-based.
For data set [23] the test system is unchanged. Description: Protac activity at CRBN/EGFR deletion19 mutant in human PC-9 cells assessed as induction of EGFR degradation at 100 nM and measured after 24 hrs under normoxia condition by Western blot analysis. The format is cell-based.

Chain of Protein cereblon/Epidermal growth factor receptor (Homo sapiens), P00533+Q96SW2 [UNDEFINED MUTATION] (P00533 whole entry, looked up, stated change not applied): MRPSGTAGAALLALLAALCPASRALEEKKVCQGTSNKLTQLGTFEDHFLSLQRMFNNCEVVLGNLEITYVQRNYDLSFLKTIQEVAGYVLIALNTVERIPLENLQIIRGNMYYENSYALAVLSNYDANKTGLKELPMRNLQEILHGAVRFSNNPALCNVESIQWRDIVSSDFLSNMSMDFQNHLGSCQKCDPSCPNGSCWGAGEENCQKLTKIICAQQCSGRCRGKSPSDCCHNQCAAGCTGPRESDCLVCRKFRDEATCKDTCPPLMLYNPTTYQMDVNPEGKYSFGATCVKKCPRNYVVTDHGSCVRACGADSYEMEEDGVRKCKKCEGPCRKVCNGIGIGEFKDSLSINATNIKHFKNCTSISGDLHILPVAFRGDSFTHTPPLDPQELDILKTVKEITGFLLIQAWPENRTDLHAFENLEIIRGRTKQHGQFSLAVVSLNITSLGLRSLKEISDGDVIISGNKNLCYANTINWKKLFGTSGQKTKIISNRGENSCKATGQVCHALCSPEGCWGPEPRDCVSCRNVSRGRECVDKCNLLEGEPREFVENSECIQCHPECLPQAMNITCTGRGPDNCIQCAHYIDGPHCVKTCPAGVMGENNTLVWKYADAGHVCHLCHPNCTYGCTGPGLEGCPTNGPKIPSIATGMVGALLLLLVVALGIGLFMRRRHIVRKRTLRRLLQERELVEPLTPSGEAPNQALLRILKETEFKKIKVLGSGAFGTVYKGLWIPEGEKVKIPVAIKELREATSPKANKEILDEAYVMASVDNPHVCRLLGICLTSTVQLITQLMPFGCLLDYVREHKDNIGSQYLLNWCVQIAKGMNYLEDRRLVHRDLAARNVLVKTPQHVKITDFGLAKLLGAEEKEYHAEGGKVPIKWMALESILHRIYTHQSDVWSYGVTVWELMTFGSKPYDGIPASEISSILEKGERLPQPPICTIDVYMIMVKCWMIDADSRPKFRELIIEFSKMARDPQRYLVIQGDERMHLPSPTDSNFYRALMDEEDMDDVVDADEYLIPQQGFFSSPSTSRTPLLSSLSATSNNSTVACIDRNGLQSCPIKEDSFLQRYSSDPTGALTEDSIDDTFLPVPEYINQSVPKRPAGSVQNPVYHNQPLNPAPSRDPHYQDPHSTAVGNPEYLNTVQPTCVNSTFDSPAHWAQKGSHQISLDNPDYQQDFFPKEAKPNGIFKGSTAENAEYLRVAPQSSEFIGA
Chain of Protein cereblon/Epidermal growth factor receptor (Homo sapiens), P00533+Q96SW2 [UNDEFINED MUTATION] (Q96SW2 whole entry, looked up, stated change not applied): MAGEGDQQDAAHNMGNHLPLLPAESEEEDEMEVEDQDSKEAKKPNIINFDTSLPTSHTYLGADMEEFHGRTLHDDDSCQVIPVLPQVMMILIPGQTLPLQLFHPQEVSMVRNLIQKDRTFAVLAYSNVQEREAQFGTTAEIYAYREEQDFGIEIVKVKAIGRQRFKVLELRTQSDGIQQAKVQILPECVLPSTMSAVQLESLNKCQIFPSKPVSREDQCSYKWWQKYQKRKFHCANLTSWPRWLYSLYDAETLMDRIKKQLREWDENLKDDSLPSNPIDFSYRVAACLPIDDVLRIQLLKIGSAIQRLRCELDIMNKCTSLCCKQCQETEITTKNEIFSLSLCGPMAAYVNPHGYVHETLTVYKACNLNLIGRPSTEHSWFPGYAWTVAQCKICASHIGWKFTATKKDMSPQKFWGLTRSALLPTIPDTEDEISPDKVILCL

On to `Cn1c(CN2C(=O)CCC(N3C(=O)c4cccc(OCCOCCOCCOCCC(=O)Nc5cc6c(Nc7ccc(F)c(Cl)c7)ncnc6cc5O[C@H]5CCOC5)c4C3=O)C2=O)cnc1[N+](=O)[O-]` (stereo partly specified), for which the Activity is on record as 11.21% in the data set on PC-9 [1]; 10.9% in the data set on PC-9 [5]; 35.08% in the data set on PC-9 [7]; 22.11% in the data set with PC-9 [9]; 2.18% with PC-9 [10]; 44.8% in the data set on PC-9 [13]. Besides, the Activity in the data set with PC-9 [14] is 2.83%; in the data set on PC-9 [15], 17.28%; in the data set on PC-9 [16] it was 75.71%; in the data set on PC-9 [17], 52.36%. Moreover, the IC50 in the data set on PC-9 [2] was 610 nM; with PC-9 [8], 1100 nM. In data set [3], the Stability entry was “Unstable”. Further, in [4], the outcome was inactive. The inhibition result in the data set on PC-9 [6] was “Active”. The Drug metabolism result in data set [11] is on record as “Metabolite_Detected”. In data set [12], the result was Active. The inhibition entry with PC-9 [18] was “inactive”.

Take `O=C(CCOCCOCCOCCOc1cccc2c1C(=O)N(C1CCC(=O)N(Cc3ccc([N+](=O)[O-])cc3)C1=O)C2=O)Nc1cc2c(Nc3ccc(F)c(Cl)c3)ncnc2cc1O[C@H]1CCOC1` (stereo partly specified): the Activity was determined as 2.98% in the data set on PC-9 [1]; 3.28% with PC-9 [5]; 9.37% with PC-9 [7]; 6.26% with PC-9 [9]; 1.1% in the data set on PC-9 [10]; 80.78% in the data set with PC-9 [13]. Besides, the Activity in the data set with PC-9 [14] is recorded as 1.89%; in the data set with PC-9 [15] it was 7.96%; in the data set on PC-9 [16], 92.63%; in the data set on PC-9 [17], 17.33%. In addition, the IC50 amounted to 1090 nM in the data set on PC-9 [2] and 1920 nM in the data set on PC-9 [8]. In addition, the Stability result in [3] is recorded as “Unstable”. Besides, the result in data set [19], in data set [20] and in data set [21] was Active. Moreover, in the data set on PC-9 [6], the inhibition entry was “Active”. Also, the Drug metabolism result in data set [11] is “Metabolite_Detected”. The outcome in data set [22] was inactive. Further, the inhibition result in the data set on PC-9 [18] is “inactive”.

With `O=C1CCC(N2C(=O)c3cccc(OCCOCCOCCOCCC(=O)Nc4cc5c(Nc6ccc(F)c(Cl)c6)ncnc5cc4O[C@H]4CCOC4)c3C2=O)C(=O)N1` (stereo partly specified), the half-inhibitory concentration (IC50) in the data set on PC-9 [2] and in the data set on PC-9 [8] was 1300 nM in each case. For the same molecule, the result in [23] was Active.
